We go through 3 compounds from patent US12151021B2, “Implantable nanochannel delivery devices” (THE METHODIST HOSPITAL SYSTEM, priority 2015, dated 2024).

Structures can show the parent of a compound that is named as a salt. Where two headings read alike, the source gives them in different places.

The nature of series [1]: Doxorubicin release in vitro from nanochannel capsules (UV-Vis at 479 nm). The format is physicochemical. The following applies: in 4 days; capsules with 20 nm nanochannels, loading solution 0.58 mg/ml, 23 °C, n=5.
Experimental: Doxorubicin loaded nanochannel capsules (n=5) were immersed in 400 μl of Millipore water in microvolume spectroscopy cuvettes sealed with tight-fitting lids. Absorbance measures were taken every 10 min for 9 days at 479 nm by a custom-built robotic carousel (Quantum Northwest, Inc.) connected to a UV-Vis spectrophotometer (Cary 50, Agilent Technologies, Inc.). The 479 nm wavelength was selected as optimal for doxorubicin with this system by prior full spectrum analysis. The cuvettes were maintained at 23±0.3° C. for the duration of the experiment. Data were normalized with respect to a Millipore water blank, and the cumulative release of the agents was obtained through comparison to a standard curve.
The nanochannel capsules were loaded with Doxorubicin and placed in isotonic conditions in vitro to characterize their release kinetics. The nanochannel capsules were immersed in PBS within microvolume cuvettes, which were sealed with tight-fitting lids. Release into the sink solution was measured via absorbance measurements at 479 nm by a robotic 48-cell carousel (Quantum Northwest, Inc.) linked to a UV-Vis Spectrophotometer (Cary 50, Agilent Technologies, Inc.). Overall drug release was evaluated via comparison of measured absorbances to standard curves following normalization with respect to initial conditions (t=0).
Details of series [2]: species or system C57B16 mice. The note with it: mouse, in vivo. As for the experimental part: All animal procedures described herein followed IACUC protocols approved by their requisite institutions. C57B16 mice were implanted with 10^6 melanoma cells (B16F10) in the upper thigh (n=5). Once tumors reached 12 mm in its longer axis, sterile nanochannel implants loaded with 470 mg/ml of Magnevist were percutaneously implanted into the tumors with a 15 G, percutaneous trocar at a 90°angle from the axial axis of the tumor. Briefly, rodents were anesthetized with 3% isofluorane and immobilized within a sterile field. The percutaneous implantation site was cleaned with chlorhexidine and 70% ethanol and all nearby hair was shaved. The trocar was inserted to the target depth of approximately 5 mm. The nanochannel capsule was extruded through manual pressure with the obturator and the trocar was removed. A single drop of bupivicaine was added to the implantation site. The implantation site was closed with suture to ensure implant immobility and restrict animal agitation of the site. The mice had secondary heating maintained throughout the procedure and until they recovered from anesthesia.
For the in vivo MR imaging, T1- and T2-weighted images were acquired axially with respect to the laboratory frame of reference on a 7 T Bruker BioSpec Scanner (Bruker Biospin, Billerica, MA, USA). […]

Series [3] is described as follows: Magnevist release in vitro from PEEK nanochannel capsules (MR T1 mapping). The series is classed as physicochemical. The note with it: at plateau beginning by Day 3; 47 mg/ml loading, PBS, 37 °C, n=4; approximation based on loading concentration. The procedure:
The drug eluting fiducial markers were loaded with a number of different molecules to examine release kinetics into simulated physiological solution in vitro. In a series of experiments, the implants were loaded with ˜2.5 μL of OX86, FGK45, or Magnevist, placed in a 70 μL cuvette, and immersed in PBS. The cuvettes were sealed with tight-fitting lids and kept in an incubator at 37° C. The PBS solution was sampled and replaced daily. The OX86 and FGK45 release was quantified by micro-BCA assay (Sigma-Aldrich). The Magnevist was quantified through MR scanning. (7 T magnet, cut-down 96-well plate in a wrist coil). An additional experiment for quantifying IgG release was conducted similarly, but at room temperature and quantified via UV-Vis spectroscopy at 280 nm sampled every 10 minutes.
PEEK nanochannel capsules loaded with Magnevist (n=4) were immersed in 500 μl of PBS in microvolume cuvettes sealed with tight-fitting lids. These microvolume cuvettes were then placed in a 37° C. incubator. The 500 μl of sink solution were sampled and replaced daily for 7 days. The sink samples were stored at 4° C. Magnevist concentration within the samples was quantified through MR imaging of the samples within a custom-built 49 well plate (7×7) with 300 μl well volumes. […]

The conditions of series [4]: from BioNumbers (Milo et al.), cited from earlier work.

In the case of `COc1cccc2c1C(=O)c1c(O)c3c(c(O)c1C2=O)C[C@@](O)(C(=O)CO)C[C@@H]3O[C@H]1C[C@H](N)[C@H](O)[C@H](C)O1` [Doxorubicin, Doxorubicin hydrochloride salt], in series [1], the “release depleted fraction of the reservoir volume” value is reported as “around 80%”.
`CNC[C@H](O)[C@@H](O)[C@H](O)[C@H](O)CO.CNC[C@H](O)[C@@H](O)[C@H](O)[C@H](O)CO.O=C([O-])CN(CCN(CC(=O)[O-])CC(=O)O)CCN(CC(=O)[O-])CC(=O)O.[Gd+3]` [Magnevist, gadopentetate dimeglumine]: in series [2], the “distance from implant's exterior at which observable enhancement begins” value is reported as 2-5 mm and the “thickness of band of observable enhancement” value is recorded as “approximately 1 mm”. Moreover, the “loaded Magnevist released” value in series [3] came to 85%.
Consider Immunoglobulin G, for which the hydrodynamic radius in series [4] was 6.4 nm; in series [4] (listed as IgG isotype immunoproteins), “approximately 6.4 nm”.
